These results are taken from article PMC11582173, “Synthesis, cytotoxicity, anti-inflammatory, anti-metastatic and anti-oxidant activities of novel chalcones incorporating 2-phenoxy-N-arylacetamide and thiophene moieties: induction of apoptosis in MCF7 and HEP2 cells” (Naunyn-Schmiedeberg's Archives of Pharmacology, 2024).

This test deals with MMP2. The experiment in a line: ELISA, MMP2 concentration. Format: cell-based, human. As for the experimental part: The concentrations of matrix metalloproteinase-2 (MMP2), matrix metalloproteinase-9 (MMP9), Bcl2, BAX, P53, Malondialdehyde (MDA), Glutathione (GSH), caspase 8, caspase 9 and IL-6 were measured quantitatively in 5c treated MCF7 and HEP2 cells using ELISA (Enzyme-Linked Immunosorbent Assay) (Table 4). Gelatinases are a collective word for MMP-2 and MMP-9, where MMP-2 is gelatinase-A and MMP-9 is gelatinase-B. Solid tumor invasion, metastasis, and angiogenesis have long been linked to gelatinases (Das et al. [2021]). […] Bcl2 is a crucial protein that targets apoptosis inhibition. It is regarded as a predictive biomarker or therapeutic target in the diagnosis of cancer due to its broad expression in a variety of cancers (Porter et al. [2009]). […] The pro-apoptotic protein BAX permeabilizes the mitochondrial outer membrane by changing from a cytosolic monomer to a hazardous oligomer triggering the apoptosis process (Fulda and Debatin [2006]). […] P53 transcription factor performs an essential tumor suppressor role by coordinating a wide range of physiological responses, including DNA repair, cell cycle arrest, cellular senescence, cell death, cell differentiation, and metabolism (Liebl and Hofmann [2021]). It was activated in MCF7 and HEP2-treated cells with values (4.28 and 3.109 ng/mL), respectively, compared to their controls (3.44 and 2.06 ng/mL). […]
On the technique in general: ELISA stands for enzyme-linked immunosorbent assay.

Several values for one entry are separate records, joined by “and”; a condition that tells them apart may be missing. Identical values can stand only once.

For the molecule `COc1ccc(NC(=O)COc2ccc(C=CC(=O)c3cccs3)cc2)cc1` [Compound 5c, N-(4-Methoxyphenyl)-2-(4-(3-oxo-3-(thiophen-2-yl)prop-1-en-1-yl)phenoxy)acetamide], the MMP2 concentration (5c treated HEP2 cells, untreated 461.58±45.11) is 142.5 pg/mL and 142.5 ± 15.03 pg/mL; the MMP2 concentration (5c treated MCF7 cells, untreated 466.90±22.55) is 185.125 pg/mL and 185.125 ± 30.07 pg/mL.
